# Test results: the supplement of paper PMC10307832
# Assays:
# Assay in all cases: relative viability (nuclei count vs DMSO), 5 days (fraction); higher = more cells survive
# [1] = compound: C(C(=O)C(=O)O)Br [Bromopyruvate] + O=C(CCCCCCC(=O)Nc1ccccc1)NO [Vorinostat] (partner 1 µM)
# Summary of the method: (§1)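 Lung cancer cell lines were pin-tool dosed in 1536-well plates on the day after seeding, with either a lone drug or a fixed anchor-drug dose plus five library-drug doses (not always all listed) in √10 steps. Nuclei were counted on 4× images after 5 days. Relative viability is the ratio of treated-well to vehicle-well nuclei counts, with each value a median of duplicate plates.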
# [2] = compound: CC(O)(CS(=O)(=O)c1ccc(F)cc1)C(=O)Nc1ccc(C#N)c(C(F)(F)F)c1 [Bicalutamide] + Cc1nc(Nc2ncc(C(=O)Nc3c(C)cccc3Cl)s2)cc(N2CCN(CCO)CC2)n1 [Dasatinib] (partner 0.075 µM)
# Summary of the method: as §1
# [3] = compound: CC(O)(CS(=O)(=O)c1ccc(F)cc1)C(=O)Nc1ccc(C#N)c(C(F)(F)F)c1 [Bicalutamide] + Nc1ncn([C@H]2C[C@H](O)[C@@H](CO)O2)c(=O)n1 [Decitabine] (partner 2 µM)
# Summary of the method: as §1
# [4] = compound: CC(O)(CS(=O)(=O)c1ccc(F)cc1)C(=O)Nc1ccc(C#N)c(C(F)(F)F)c1 [Bicalutamide] + O=C(CCCCCCC(=O)Nc1ccccc1)NO [Vorinostat] (partner 1 µM)
# Summary of the method: as §1
Cell Line,relative viability ([1]; first compound 1 µM),relative viability ([1]; first compound 3.162 µM),relative viability ([1]; first compound 10 µM),relative viability ([1]; first compound 31.62 µM),relative viability ([1]; first compound 100 µM),relative viability ([2]; first compound 0.08 µM),relative viability ([2]; first compound 0.253 µM),relative viability ([2]; first compound 0.8 µM),relative viability ([2]; first compound 2.53 µM),relative viability ([3]; first compound 0.08 µM),relative viability ([3]; first compound 0.253 µM),relative viability ([3]; first compound 0.8 µM),relative viability ([3]; first compound 2.53 µM),relative viability ([4]; first compound 0.08 µM),relative viability ([4]; first compound 0.253 µM),relative viability ([4]; first compound 0.8 µM),relative viability ([4]; first compound 2.53 µM)
NCI-H1651,0.612,0.573,0.578,0.466,0.345,0.449,0.322,0.471,0.451,0.6,0.618,0.779,0.655,0.577,0.514,0.662,0.567
NCI-H1755,0.862,0.819,0.682,0.768,0.651,0.397,0.382,0.446,0.351,0.737,0.636,0.721,0.741,0.727,0.748,0.916,0.635
NCI-H727,1.28,1.26,1.24,0.886,1.23,0.376,,0.383,0.653,0.994,0.847,0.896,0.991,1.38,1.08,1.24,1.19
HARA,0.692,0.511,0.628,0.528,0.37,0.273,0.248,0.314,0.265,0.632,,0.536,0.574,0.469,0.477,0.586,0.517
NCI-H647,0.559,0.724,0.399,0.51,0.334,0.187,0.173,0.208,0.139,0.601,0.328,0.34,0.338,0.474,0.655,0.575,0.435
NCI-H2347,0.645,0.541,0.542,0.495,0.473,0.318,0.307,0.299,0.308,0.583,0.651,0.628,0.634,0.574,0.587,0.709,0.581
LCLC-97TM1,0.666,0.671,0.887,0.601,0.655,0.954,0.853,0.813,0.817,0.222,0.202,0.305,0.234,0.728,0.644,0.972,0.54
EPLC-272H,0.36,0.38,0.359,0.44,0.347,0.375,0.336,0.454,0.321,0.384,0.373,0.382,0.342,0.437,0.401,0.573,0.479
NCI-H522,0.93,1.02,1.02,0.799,0.763,0.815,0.722,0.901,0.87,0.585,0.575,0.71,0.632,1.01,0.862,0.99,0.77
